Test results from the NIST ThermoML archive (doi:10.1021/je050509f).
± gives the expanded uncertainty stated by the source.

Experiment: mn = molality of the nth substance listed, in mol/kg
Conditions: Liquid, Vibrating tube method

[Cl-].[Cl-].[Zn+2] [zinc chloride] + CO
Conditions | mass density [kg/m3]
298.27 K, 170 kPa, m1 = 0.8018 | 861.37 ± 0.42
298.27 K, 188 kPa, m1 = 0.4768 | 833.84 ± 0.42
298.27 K, 200 kPa, m1 = 5.367 | 1205.67 ± 0.43
298.27 K, 203 kPa, m1 = 1.039 | 881.26 ± 0.42
298.27 K, 205 kPa, m1 = 0.1348 | 801.32 ± 0.43
298.27 K, 205 kPa, m1 = 1.977 | 959.59 ± 0.42
298.27 K, 4983 kPa, m1 = 5.367 | 1209.53 ± 0.44
298.27 K, 4985 kPa, m1 = 1.039 | 885.56 ± 0.42
298.27 K, 4994 kPa, m1 = 0.4768 | 838 ± 0.43
298.27 K, 4996 kPa, m1 = 0.8018 | 865.98 ± 0.43
298.27 K, 5004 kPa, m1 = 0.1348 | 805.97 ± 0.44
298.27 K, 5014 kPa, m1 = 1.977 | 963.97 ± 0.42
298.27 K, 9992 kPa, m1 = 5.367 | 1213.48 ± 0.46
298.27 K, 9995 kPa, m1 = 0.8018 | 870.53 ± 0.43
298.27 K, 9996 kPa, m1 = 1.977 | 968.35 ± 0.42
298.27 K, 9997 kPa, m1 = 1.039 | 889.93 ± 0.43
298.27 K, 10000 kPa, m1 = 0.1348 | 810.57 ± 0.45
298.27 K, 10004 kPa, m1 = 0.4768 | 841.99 ± 0.44
298.27 K, 14982 kPa, m1 = 0.4768 | 845.9 ± 0.45
298.27 K, 14987 kPa, m1 = 1.039 | 894.12 ± 0.43
298.27 K, 14995 kPa, m1 = 5.367 | 1217.3 ± 0.47
298.27 K, 14997 kPa, m1 = 1.977 | 972.58 ± 0.42
298.27 K, 15000 kPa, m1 = 0.8018 | 874.88 ± 0.44
298.27 K, 15010 kPa, m1 = 0.1348 | 814.96 ± 0.46
298.27 K, 19985 kPa, m1 = 1.039 | 898.15 ± 0.44
298.27 K, 19988 kPa, m1 = 5.367 | 1221.03 ± 0.5
298.27 K, 19989 kPa, m1 = 1.977 | 976.63 ± 0.42
298.27 K, 20001 kPa, m1 = 0.8018 | 879.03 ± 0.44
298.27 K, 20007 kPa, m1 = 0.1348 | 819.13 ± 0.47
298.27 K, 20018 kPa, m1 = 0.4768 | 849.66 ± 0.46
298.27 K, 24988 kPa, m1 = 0.8018 | 883.01 ± 0.45
298.27 K, 24993 kPa, m1 = 1.977 | 980.56 ± 0.42
298.27 K, 24996 kPa, m1 = 5.367 | 1224.68 ± 0.52
298.27 K, 24999 kPa, m1 = 0.1348 | 823.11 ± 0.48
298.27 K, 25003 kPa, m1 = 1.039 | 902.02 ± 0.44
298.27 K, 25032 kPa, m1 = 0.4768 | 853.57 ± 0.47
298.27 K, 29990 kPa, m1 = 1.977 | 984.35 ± 0.42
298.27 K, 29994 kPa, m1 = 5.367 | 1228.21 ± 0.55
298.27 K, 30002 kPa, m1 = 0.1348 | 826.95 ± 0.5
298.27 K, 30004 kPa, m1 = 0.4768 | 857.56 ± 0.48
298.27 K, 30004 kPa, m1 = 0.8018 | 886.87 ± 0.46
298.27 K, 30007 kPa, m1 = 1.039 | 905.8 ± 0.45
298.27 K, 34983 kPa, m1 = 1.039 | 909.4 ± 0.45
298.27 K, 34992 kPa, m1 = 0.8018 | 890.56 ± 0.47
298.27 K, 34993 kPa, m1 = 0.1348 | 830.61 ± 0.51
298.27 K, 34993 kPa, m1 = 0.4768 | 862.15 ± 0.49
298.27 K, 34996 kPa, m1 = 5.367 | 1231.68 ± 0.58
298.27 K, 35014 kPa, m1 = 1.977 | 988.04 ± 0.42
298.27 K, 39991 kPa, m1 = 1.039 | 912.9 ± 0.46
298.27 K, 39994 kPa, m1 = 1.977 | 991.58 ± 0.42
298.27 K, 39994 kPa, m1 = 5.367 | 1235.1 ± 0.62
298.27 K, 39997 kPa, m1 = 0.4768 | 866.01 ± 0.5
298.27 K, 39997 kPa, m1 = 0.8018 | 894.15 ± 0.47
298.27 K, 40006 kPa, m1 = 0.1348 | 834.16 ± 0.53
323.24 K, 207 kPa, m1 = 0.4768 | 808.23 ± 0.43
323.24 K, 209 kPa, m1 = 0.1348 | 777.17 ± 0.43
323.24 K, 209 kPa, m1 = 5.367 | 1172.87 ± 0.43
323.24 K, 220 kPa, m1 = 1.039 | 855.22 ± 0.42
323.24 K, 230 kPa, m1 = 1.977 | 931.65 ± 0.42
323.24 K, 233 kPa, m1 = 0.8018 | 835.94 ± 0.42
323.24 K, 4983 kPa, m1 = 0.8018 | 841.09 ± 0.43
323.24 K, 4985 kPa, m1 = 0.4768 | 813.47 ± 0.43
323.24 K, 4990 kPa, m1 = 0.1348 | 782.51 ± 0.44
323.24 K, 4993 kPa, m1 = 1.977 | 936.57 ± 0.42
323.24 K, 4994 kPa, m1 = 1.039 | 860.28 ± 0.43
323.24 K, 4999 kPa, m1 = 5.367 | 1177.21 ± 0.44
323.24 K, 9985 kPa, m1 = 1.977 | 941.48 ± 0.42
